According to ChEMBL document CHEMBL1150330, “Muscarinic antagonists with multiple stereocenters: Synthesis, affinity profile and functional activity of isomeric 1-methyl-2-(2,2-alkylaryl-1,3-oxathiolan-5-yl)pyrrolidine sulfoxide derivatives” (Bioorg Med Chem, 2008):

What was measured:
[1] = target: T1, Muscarinic acetylcholine receptor M1 (Homo sapiens, UniProt P11229); assay: Displacement of [3H]NMS from human muscarinic M1 receptor expressed in CHO cells; type: cell-based
T1 sequence (P11229 whole entry): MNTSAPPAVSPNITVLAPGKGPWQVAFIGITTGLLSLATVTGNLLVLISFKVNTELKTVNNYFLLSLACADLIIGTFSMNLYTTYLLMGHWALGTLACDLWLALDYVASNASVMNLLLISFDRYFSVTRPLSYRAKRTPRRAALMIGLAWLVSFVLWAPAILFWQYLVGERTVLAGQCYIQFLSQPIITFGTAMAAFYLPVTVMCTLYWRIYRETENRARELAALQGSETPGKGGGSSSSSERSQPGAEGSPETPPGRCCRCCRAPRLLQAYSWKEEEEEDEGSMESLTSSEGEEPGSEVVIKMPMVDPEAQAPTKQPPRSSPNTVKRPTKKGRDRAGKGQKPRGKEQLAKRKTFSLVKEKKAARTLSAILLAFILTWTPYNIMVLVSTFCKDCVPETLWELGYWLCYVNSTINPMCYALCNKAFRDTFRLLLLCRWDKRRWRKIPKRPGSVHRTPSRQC

[2] = target: T2, Muscarinic acetylcholine receptor M2 (Homo sapiens, UniProt P08172); assay: Displacement of [3H]NMS from human muscarinic M2 receptor expressed in CHO cells; type: cell-based
T2 sequence (P08172 whole entry): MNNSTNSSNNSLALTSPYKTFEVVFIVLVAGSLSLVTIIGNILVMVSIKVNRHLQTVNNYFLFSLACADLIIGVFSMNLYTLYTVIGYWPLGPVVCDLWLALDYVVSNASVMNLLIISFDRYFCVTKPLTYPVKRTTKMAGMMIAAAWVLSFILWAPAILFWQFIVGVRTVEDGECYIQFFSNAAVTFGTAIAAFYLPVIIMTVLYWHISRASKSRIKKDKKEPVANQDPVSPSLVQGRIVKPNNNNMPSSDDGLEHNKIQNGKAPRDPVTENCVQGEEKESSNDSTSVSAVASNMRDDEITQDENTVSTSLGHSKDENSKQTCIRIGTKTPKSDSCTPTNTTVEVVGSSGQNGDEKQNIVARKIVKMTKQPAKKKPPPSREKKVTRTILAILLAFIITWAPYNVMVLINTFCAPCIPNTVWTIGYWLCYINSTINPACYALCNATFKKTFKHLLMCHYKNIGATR

[3] = target: Muscarinic acetylcholine receptor M3 (Homo sapiens, UniProt P20309); assay: Displacement of [3H]NMS from human muscarinic M3 receptor expressed in CHO cells; type: cell-based
[4] = target: T3, Muscarinic acetylcholine receptor M4 (Homo sapiens, UniProt P08173); assay: Displacement of [3H]NMS from human muscarinic M4 receptor expressed in CHO cells; type: cell-based
T3 sequence (P08173 whole entry): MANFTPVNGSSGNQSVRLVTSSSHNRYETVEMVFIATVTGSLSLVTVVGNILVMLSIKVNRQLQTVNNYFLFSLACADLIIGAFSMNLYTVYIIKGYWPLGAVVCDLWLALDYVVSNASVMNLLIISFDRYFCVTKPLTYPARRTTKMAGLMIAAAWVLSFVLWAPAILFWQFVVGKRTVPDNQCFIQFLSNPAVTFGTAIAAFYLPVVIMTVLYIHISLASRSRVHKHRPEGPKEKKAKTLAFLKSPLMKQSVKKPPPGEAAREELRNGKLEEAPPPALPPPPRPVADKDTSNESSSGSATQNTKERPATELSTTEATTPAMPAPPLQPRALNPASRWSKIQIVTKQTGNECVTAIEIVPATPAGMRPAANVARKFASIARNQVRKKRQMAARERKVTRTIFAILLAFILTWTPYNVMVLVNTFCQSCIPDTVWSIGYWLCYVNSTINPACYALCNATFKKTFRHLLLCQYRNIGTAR

[5] = target: T4, Muscarinic acetylcholine receptor M5 (Homo sapiens, UniProt P08912); assay: Displacement of [3H]NMS from human muscarinic M5 receptor expressed in CHO cells; type: cell-based
T4 sequence (P08912 whole entry): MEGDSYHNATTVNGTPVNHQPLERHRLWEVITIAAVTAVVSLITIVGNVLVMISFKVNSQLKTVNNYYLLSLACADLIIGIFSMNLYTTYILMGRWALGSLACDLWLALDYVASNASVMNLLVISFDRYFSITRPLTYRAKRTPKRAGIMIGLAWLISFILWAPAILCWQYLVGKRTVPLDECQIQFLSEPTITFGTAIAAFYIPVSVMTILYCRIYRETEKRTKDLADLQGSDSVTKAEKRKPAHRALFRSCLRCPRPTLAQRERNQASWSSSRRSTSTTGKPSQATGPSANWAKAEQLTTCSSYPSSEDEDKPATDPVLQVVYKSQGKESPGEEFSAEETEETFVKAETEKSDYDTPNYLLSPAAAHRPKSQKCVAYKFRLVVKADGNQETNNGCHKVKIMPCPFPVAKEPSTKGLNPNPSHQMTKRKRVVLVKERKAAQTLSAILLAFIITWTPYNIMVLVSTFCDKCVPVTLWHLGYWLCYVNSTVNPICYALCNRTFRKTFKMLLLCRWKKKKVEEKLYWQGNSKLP

[6] = Antagonist activity against muscarinic M2 receptor in guinea pig atria assessed as effect on electrically-stimulated atria; type: functional, Cavia porcellus
[7] = Antagonist activity against muscarinic M3 receptor in guinea pig ileum assessed as effect on ileum tension; type: functional, Cavia porcellus
[8] = Antagonist activity against muscarinic M4 receptor in guinea pig lung strip assessed as effect on electrically-stimulated contraction; type: functional, Cavia porcellus

Chain of Muscarinic acetylcholine receptor M3 (P20309 whole entry): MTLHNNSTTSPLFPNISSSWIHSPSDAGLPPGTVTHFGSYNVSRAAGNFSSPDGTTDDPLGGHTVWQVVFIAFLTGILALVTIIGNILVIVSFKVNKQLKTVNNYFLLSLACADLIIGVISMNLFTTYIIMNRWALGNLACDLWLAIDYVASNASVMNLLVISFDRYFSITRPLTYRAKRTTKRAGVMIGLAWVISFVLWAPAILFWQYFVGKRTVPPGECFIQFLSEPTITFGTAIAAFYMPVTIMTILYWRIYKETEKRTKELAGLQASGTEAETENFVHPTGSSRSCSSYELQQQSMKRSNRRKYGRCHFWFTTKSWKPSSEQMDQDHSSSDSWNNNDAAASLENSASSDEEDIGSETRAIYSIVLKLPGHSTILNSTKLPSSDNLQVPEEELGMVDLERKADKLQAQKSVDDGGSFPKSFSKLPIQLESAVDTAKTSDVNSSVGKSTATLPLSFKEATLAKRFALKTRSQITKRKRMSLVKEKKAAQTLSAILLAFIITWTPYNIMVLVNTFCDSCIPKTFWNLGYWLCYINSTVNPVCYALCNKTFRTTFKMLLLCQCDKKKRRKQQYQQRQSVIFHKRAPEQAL

Row | SMILES | Ki [1] | Ki [2] | Ki [3] | Ki [4] | Ki [5] | pKb [6] | pKb [7] | pKb [8]
1 | C[N+]1(C)CCC[C@H]1[C@H]1C[S+]([O-])[C@](c2ccccc2)(C2CCCCC2)O1.[I-] (stereo in doubt; (-)-14) | 155 nM | 550 nM | 324 nM | 603 nM | 331 nM | 6.03 | 6.68 | 5.24
2 | CN1CCC[C@@H]1[C@@H]1C[S+]([O-])C(c2ccccc2)(c2ccccc2)O1 (stereo in doubt; (-)-4) | 74.1 nM | 229 nM | 513 nM | 513 nM | 355 nM | 7.27 | 6.95 | 5.75
3 | CN1CCC[C@@H]1[C@@H]1C[S+]([O-])[C@](c2ccccc2)(C2CCCCC2)O1 (stereo in doubt; (-)-6) | 79.4 nM | 107 nM | 195 nM | 355 nM | 275 nM | 7.34 | 7.39 | 7.24
4 | CN1CCC[C@@H]1[C@@H]1C[S+]([O-])[C@](c2ccccc2)(C2CCCCC2)O1 (stereo in doubt; (-)-7) | 14.1 nM | 4.17 nM | 42.7 nM | 42.7 nM | 58.9 nM | 9.37 | 8.71 | 6.92
5 | CN1CCC[C@@H]1[C@@H]1C[S+]([O-])[C@@](c2ccccc2)(C2CCCCC2)O1 (stereo in doubt; (+)-8) | 38 nM | 66.1 nM | 24 nM | 93.3 nM | 30.2 nM | 7.05 | 7.71 | <5
6 | C[N+]1(C)CCC[C@@H]1[C@@H]1C[S+]([O-])[C@](c2ccccc2)(C2CCCCC2)O1.[I-] (stereo in doubt; (-)-13) | 117 nM | 95.5 nM | 324 nM | 468 nM | 302 nM | 7.51 | 7.22 | 6.06
7 | CN1CCC[C@H]1[C@H]1C[S+]([O-])[C@@](c2ccccc2)(C2CCCCC2)O1 (stereo in doubt; (+)-6) | 155 nM | 1020 nM | 389 nM | 447 nM | 525 nM | 5.48 | 6.43 | <5
8 | C[N+]1(C)CCC[C@H]1[C@H]1C[S+]([O-])C(c2ccccc2)(c2ccccc2)O1.[I-] (stereo in doubt; (-)-11) | 15.8 nM | 41.7 nM | 51.3 nM | 105 nM | 30.2 nM | 6.93 | 7.89 | <5

More lines, in order of falling Ki [1], values ahead:

Row | Ki [1] | Ki [2] | Ki [3] | Ki [4] | Ki [5] | SMILES | pKb [6] | pKb [7] | pKb [8]
9 | 537 nM | 1450 nM | 692 nM | 1510 nM | 759 nM | CN1CCC[C@H]1[C@H]1C[S+]([O-])[C@](c2ccccc2)(C2CCCCC2)O1 (stereo in doubt; (-)-8) | 5.71 | 5.95 | 5.19
10 | 110 nM | 39.8 nM | 282 nM | 316 nM | 339 nM | CN1CCC[C@@H]1[C@@H]1C[S+]([O-])C(c2ccccc2)(c2ccccc2)O1 (stereo in doubt; (+)-5) | 7.1 | 7.17 | 5.63
11 | 110 nM | 562 nM | 468 nM | 1020 nM | 513 nM | CN1CCC[C@H]1[C@H]1C[S+]([O-])C(c2ccccc2)(c2ccccc2)O1 (stereo in doubt; (+)-4) | 6 | 6.55 | 5.29
12 | 107 nM | 38 nM | 200 nM | 257 nM | 288 nM | CN1CCC[C@@H]1[C@@H]1C[S+]([O-])[C@@](c2ccccc2)(C2CCCCC2)O1 (stereo in doubt; (+)-9) | 7.72 | 7.59 | 6.16
13 | 93.3 nM | 77.6 nM | 162 nM | 302 nM | 224 nM | C[N+]1(C)CCC[C@@H]1[C@@H]1C[S+]([O-])[C@@](c2ccccc2)(C2CCCCC2)O1.[I-] (stereo in doubt; (+)-15) | 6.97 | 7.1 | 6.48
14 | 56.2 nM | 85.1 nM | 288 nM | 316 nM | 195 nM | C[N+]1(C)CCC[C@@H]1[C@@H]1C[S+]([O-])[C@](c2ccccc2)(C2CCCCC2)O1.[I-] (stereo in doubt; (-)-12) | 7.91 | 7.11 | 7.45
15 | 29.5 nM | 141 nM | 209 nM | 209 nM | 91.2 nM | C[N+]1(C)CCC[C@H]1[C@H]1C[S+]([O-])C(c2ccccc2)(c2ccccc2)O1.[I-] (stereo in doubt; (+)-10) | 7.2 | 6.95 | 5.54
16 | 21.9 nM | 74.1 nM | 34.7 nM | 95.5 nM | 141 nM | C[N+](C)(C)C[C@@H]1C[S@](=O)[C@@](c2ccccc2)(C2CCCCC2)O1.[I-] | 7.52 | 7.64 | 5.24
17 | 19.5 nM | 57.5 nM | 77.6 nM | 112 nM | 41.7 nM | C[N+]1(C)CCC[C@H]1[C@H]1C[S+]([O-])[C@](c2ccccc2)(C2CCCCC2)O1.[I-] (stereo in doubt; (-)-15) | 6.92 | 7.9 | 5.64
18 | 10 nM | 64.6 nM | 18.2 nM | 33.1 nM | 25.1 nM | CN1CCC[C@H]1[C@H]1C[S+]([O-])[C@@](c2ccccc2)(C2CCCCC2)O1 (stereo in doubt; (+)-7) | 7.56 | 7.96 | 5.2
19 | 6.92 nM | 21.4 nM | 6.92 nM | 19.1 nM | 14.1 nM | C[N+]1(C)CCC[C@@H]1[C@@H]1C[S+]([O-])[C@@](c2ccccc2)(C2CCCCC2)O1.[I-] (stereo in doubt; (+)-14) | 7.98 | 9 | 7.59
20 | 3.02 nM | 17.8 nM | 4.17 nM | 15.8 nM | 3.02 nM | C[N+]1(C)CCC[C@H]1[C@H]1C[S+]([O-])[C@@](c2ccccc2)(C2CCCCC2)O1.[I-] (stereo in doubt; (+)-13) | 7.81 | 8.67 | 6.37
